Columns and labels:
HiBit-BRM fusion protein = target: T1, HiBit-BRM fusion protein (Homo sapiens, UniProt P51531); assay: HiBiT-BRM cell-based degradation assay (Nano-Glo HiBiT Lytic Detection, 24 h); details: stable HeLa cell line expressing HiBiT-BRM, top dose 30 μM
T1 construct: expressed in transfected cells
How it was run: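 Luminescence from HiBiT/LgBiT complementation after lysis reports remaining HiBiT-BRM in stable HeLa cells exposed to compound for 24 h. Dosing used 3-fold serial dilutions, 10 points, 30 μM top final concentration. DMSO and a 2 μM BRM/BRG1 degrader standard defined 0% and 100% degradation.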

[1] = target: T2, HiBit-BRG1 fusion protein (Homo sapiens, UniProt P51532); assay: HiBiT-BRG1 cell-based degradation assay (Nano-Glo HiBiT Lytic Detection, 24 h); details: stable HeLa cell line expressing HiBit-BRG1 and LgBit, top dose 30 μM, read-out: BRG1 HiBit Degradation Maximum (%)
T2 construct: expressed in transfected cells
T2 sequence (P51532 whole entry, the tested form may be a part): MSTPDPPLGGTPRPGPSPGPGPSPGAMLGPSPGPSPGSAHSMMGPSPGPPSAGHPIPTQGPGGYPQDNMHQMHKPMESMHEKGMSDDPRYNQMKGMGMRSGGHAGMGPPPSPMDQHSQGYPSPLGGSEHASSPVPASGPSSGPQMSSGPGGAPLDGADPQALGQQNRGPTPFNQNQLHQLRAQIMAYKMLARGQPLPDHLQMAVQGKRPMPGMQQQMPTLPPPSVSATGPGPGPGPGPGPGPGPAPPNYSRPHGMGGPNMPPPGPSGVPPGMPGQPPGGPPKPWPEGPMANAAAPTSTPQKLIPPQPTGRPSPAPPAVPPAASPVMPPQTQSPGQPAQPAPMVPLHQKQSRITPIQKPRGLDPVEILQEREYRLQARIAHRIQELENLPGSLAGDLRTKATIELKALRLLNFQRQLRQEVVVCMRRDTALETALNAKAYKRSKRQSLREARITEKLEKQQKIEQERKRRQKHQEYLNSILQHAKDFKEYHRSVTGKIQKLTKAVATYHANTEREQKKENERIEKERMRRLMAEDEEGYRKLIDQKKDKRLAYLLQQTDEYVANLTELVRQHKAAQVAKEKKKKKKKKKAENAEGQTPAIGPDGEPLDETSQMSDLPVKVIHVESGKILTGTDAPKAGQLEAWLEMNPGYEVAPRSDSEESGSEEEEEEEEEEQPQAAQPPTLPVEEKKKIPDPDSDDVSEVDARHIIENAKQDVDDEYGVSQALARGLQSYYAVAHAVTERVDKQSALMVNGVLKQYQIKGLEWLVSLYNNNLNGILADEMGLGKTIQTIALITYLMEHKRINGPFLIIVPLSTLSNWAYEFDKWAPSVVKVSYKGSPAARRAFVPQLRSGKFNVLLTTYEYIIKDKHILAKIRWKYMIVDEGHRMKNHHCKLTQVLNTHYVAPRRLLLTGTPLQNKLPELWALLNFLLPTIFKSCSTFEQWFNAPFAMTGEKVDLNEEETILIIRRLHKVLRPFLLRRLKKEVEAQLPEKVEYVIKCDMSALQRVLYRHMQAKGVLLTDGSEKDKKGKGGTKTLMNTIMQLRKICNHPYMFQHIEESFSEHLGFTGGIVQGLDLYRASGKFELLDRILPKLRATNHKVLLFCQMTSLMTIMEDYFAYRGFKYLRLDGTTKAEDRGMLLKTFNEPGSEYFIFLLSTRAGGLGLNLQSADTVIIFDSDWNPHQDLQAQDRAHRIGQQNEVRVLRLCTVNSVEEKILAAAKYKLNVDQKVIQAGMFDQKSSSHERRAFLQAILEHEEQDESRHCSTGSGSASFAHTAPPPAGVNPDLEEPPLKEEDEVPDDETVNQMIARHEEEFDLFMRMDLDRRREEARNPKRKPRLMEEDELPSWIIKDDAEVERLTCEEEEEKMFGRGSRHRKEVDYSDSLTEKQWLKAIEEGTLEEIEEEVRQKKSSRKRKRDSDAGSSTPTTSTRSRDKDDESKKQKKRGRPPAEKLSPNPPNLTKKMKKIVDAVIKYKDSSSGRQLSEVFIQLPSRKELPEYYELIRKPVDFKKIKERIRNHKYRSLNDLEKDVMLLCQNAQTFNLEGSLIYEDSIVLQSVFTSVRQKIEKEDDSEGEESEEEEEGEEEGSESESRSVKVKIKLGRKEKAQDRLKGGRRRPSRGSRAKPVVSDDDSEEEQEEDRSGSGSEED
How it was run: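 HeLa cells stably expressing HiBiT-BRG1 plus LgBiT were treated with 10-point 3-fold compound dilutions (top 30 μM final) for 24 h. Lytic Nano-Glo HiBiT luminescence was read. % degradation was normalised between DMSO (high control) and 2 μM of a reference BRM/BRG1 degrader (low control).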

T1 sequence (P51531 whole entry, the tested form may be a part): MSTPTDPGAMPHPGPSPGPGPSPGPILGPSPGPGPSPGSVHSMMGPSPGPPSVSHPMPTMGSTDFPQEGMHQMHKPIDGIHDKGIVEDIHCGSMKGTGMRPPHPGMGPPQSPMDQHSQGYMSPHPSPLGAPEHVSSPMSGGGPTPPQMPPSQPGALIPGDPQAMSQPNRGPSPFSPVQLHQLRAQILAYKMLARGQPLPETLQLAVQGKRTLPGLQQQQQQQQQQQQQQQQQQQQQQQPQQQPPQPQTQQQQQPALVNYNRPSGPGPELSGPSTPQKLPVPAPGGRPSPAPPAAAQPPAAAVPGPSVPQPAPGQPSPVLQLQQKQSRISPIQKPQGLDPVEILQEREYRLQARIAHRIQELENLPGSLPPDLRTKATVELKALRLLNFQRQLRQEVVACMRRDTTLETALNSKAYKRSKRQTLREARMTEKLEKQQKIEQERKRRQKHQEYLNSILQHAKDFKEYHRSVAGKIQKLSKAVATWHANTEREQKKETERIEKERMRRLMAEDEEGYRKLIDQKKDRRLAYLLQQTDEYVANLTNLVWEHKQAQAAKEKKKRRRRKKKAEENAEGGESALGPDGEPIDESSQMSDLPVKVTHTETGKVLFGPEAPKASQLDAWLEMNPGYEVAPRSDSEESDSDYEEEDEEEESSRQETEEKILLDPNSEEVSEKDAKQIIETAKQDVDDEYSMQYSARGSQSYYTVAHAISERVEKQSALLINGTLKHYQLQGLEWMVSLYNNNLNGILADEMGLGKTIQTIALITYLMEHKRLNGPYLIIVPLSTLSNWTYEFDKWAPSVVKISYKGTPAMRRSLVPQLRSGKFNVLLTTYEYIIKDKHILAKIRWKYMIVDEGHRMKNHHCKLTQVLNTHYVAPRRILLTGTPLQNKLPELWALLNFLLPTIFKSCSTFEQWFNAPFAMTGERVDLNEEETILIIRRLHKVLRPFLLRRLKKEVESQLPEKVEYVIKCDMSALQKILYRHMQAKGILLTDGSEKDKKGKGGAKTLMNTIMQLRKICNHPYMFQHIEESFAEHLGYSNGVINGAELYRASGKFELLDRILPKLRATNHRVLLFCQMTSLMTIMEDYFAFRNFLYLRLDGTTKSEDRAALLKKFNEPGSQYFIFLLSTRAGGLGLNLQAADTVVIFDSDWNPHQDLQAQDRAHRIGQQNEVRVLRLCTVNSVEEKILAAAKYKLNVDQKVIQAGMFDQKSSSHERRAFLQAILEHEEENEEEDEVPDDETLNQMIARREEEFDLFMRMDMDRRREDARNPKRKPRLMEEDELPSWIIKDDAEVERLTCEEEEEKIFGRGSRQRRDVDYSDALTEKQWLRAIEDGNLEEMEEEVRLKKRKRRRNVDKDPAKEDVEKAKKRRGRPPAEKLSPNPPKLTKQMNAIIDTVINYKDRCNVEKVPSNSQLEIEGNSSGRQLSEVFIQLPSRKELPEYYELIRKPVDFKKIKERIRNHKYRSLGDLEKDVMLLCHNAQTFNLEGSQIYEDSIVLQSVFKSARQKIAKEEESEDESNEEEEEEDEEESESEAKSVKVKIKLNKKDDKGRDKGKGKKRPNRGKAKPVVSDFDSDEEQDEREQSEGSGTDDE

Structure (SMILES) | Dmax [1] | BRM HiBit Degradation Maximum (%) (HiBit-BRM fusion protein)
Nc1nnc(-c2ccccc2O)cc1OCC12CC(CNC(=O)CCCCCCCCNc3ccc4c(c3)C(=O)N(C3CCC(=O)NC3=O)C4=O)(C1)C2 (stereo not shown) [Compound 9, N-[[3-([[3-amino-6-(2-hydroxyphenyl)pyridazin-4-yl]oxy]methyl)bicyclo[1.1.1]pentan-1-yl]methyl]-9-[[2-(2,6-dioxopiperidin-3-yl)-1,3-dioxoisoindol-5-yl]amino]nonanamide] | < 50% | C (“C” indicates maximum degradation < 50%)
Nc1nnc(-c2ccccc2O)cc1OCC12CC(CNC(=O)CCCCCCCOc3cccc4c3C(=O)N(C3CCC(=O)NC3=O)C4=O)(C1)C2 (stereo not shown) [Compound 5, N-[[3-([[3-amino-6-(2-hydroxyphenyl)pyridazin-4-yl]oxy]methyl)bicyclo[1.1.1]pentan-1-yl]methyl]-8-[[2-(2,6-dioxopiperidin-3-yl)-1,3-dioxoisoindol-4-yl]oxy]octanamide] | < 50% | C (“C” indicates maximum degradation < 50%)
Nc1nnc(-c2ccccc2O)cc1OCCC12CC(NC(=O)CCCCOc3cccc4c3C(=O)N(C3CCC(=O)NC3=O)C4=O)(C1)C2 (stereo not shown) [Compound 19, N-(3-(2-((3-amino-6-(2-hydroxyphenyl)pyridazin-4-yl)oxy)ethyl)bicyclo[1.1.1]pentan-1-yl)-5-((2-(2,6-dioxopiperidin-3-yl)-1,3-dioxoisoindolin-4-yl)oxy)pentanamide] | < 50% | C (“C” indicates maximum degradation < 50%)
Nc1nnc(-c2ccccc2O)cc1OCCC12CC(NC(=O)CCCCCCCOc3cccc4c3C(=O)N(C3CCC(=O)NC3=O)C4=O)(C1)C2 (stereo not shown) [Compound 21, N-[3-(2-[[3-amino-6-(2-hydroxyphenyl)pyridazin-4-yl]oxy]ethyl)bicyclo[1.1.1]pentan-1-yl]-8-[[2-(2,6-dioxopiperidin-3-yl)-1,3-dioxoisoindol-4-yl]oxy]octanamide] | < 50% | C (“C” indicates maximum degradation < 50%)
Nc1nnc(-c2ccccc2O)cc1OCC12CC(CNC(=O)CCCOc3cccc4c3C(=O)N(C3CCC(=O)NC3=O)C4=O)(C1)C2 (stereo not shown) [Compound 2, N-[[3-([[3-amino-6-(2-hydroxyphenyl)pyridazin-4-yl]oxy]methyl)bicyclo[1.1.1]pentan-1-yl]methyl]-4-[[2-(2,6-dioxopiperidin-3-yl)-1,3-dioxoisoindol-4-yl]oxy]butanamide] | < 50% | C (“C” indicates maximum degradation < 50%)
Nc1nnc(-c2ccccc2O)cc1OCC12CC(CNC(=O)CCOCCOCCOc3ccc4c(c3)C(=O)N(C3CCC(=O)NC3=O)C4=O)(C1)C2 (stereo not shown) [Compound 1, N-[[3-([[3-amino-6-(2-hydroxyphenyl)pyridazin-4-yl]oxy]methyl)bicyclo[1.1.1]pentan-1-yl]methyl]-3-[2-(2-[[2-(2,6-dioxopiperidin-3-yl)-1,3-dioxoisoindol-5-yl]oxy]ethoxy)ethoxy]propanamide] | < 50% | C (“C” indicates maximum degradation < 50%)
Nc1nnc(-c2ccccc2O)cc1OCCC12CC(NC(=O)CCCOc3cccc4c3C(=O)N(C3CCC(=O)NC3=O)C4=O)(C1)C2 (stereo not shown) [Compound 18, N-(3-(2-((3-amino-6-(2-hydroxyphenyl)pyridazin-4-yl)oxy)ethyl)bicyclo[1.1.1]pentan-1-yl)-4-((2-(2,6-dioxopiperidin-3-yl)-1,3-dioxoisoindolin-4-yl)oxy)butanamide] | < 50% | C (“C” indicates maximum degradation < 50%)
Cc1ncsc1-c1ccc(CNC(=O)[C@@H]2C[C@@H](O)CN2C(=O)[C@@H](NC(=O)CCCC(=O)NCC23CC(COc4cc(-c5ccccc5O)nnc4N)(C2)C3)C(C)(C)C)cc1 [Compound 37, N1-((3-(((3-amino-6-(2-hydroxyphenyl)pyridazin-4-yl)oxy)methyl)bicyclo[1.1.1]pentan-1-yl)methyl)-N5-((S)-1-((2S,4R)-4-hydroxy-2-((4-(4-methylthiazol-5-yl)benzyl)carbamoyl)pyrrolidin-1-yl)-3,3-dimethyl-1-oxobutan-2-yl)glutaramide] | < 50% | C (“C” indicates maximum degradation < 50%)

More lines, main results first:

Dmax [1] | Structure (SMILES) | BRM HiBit Degradation Maximum (%) (HiBit-BRM fusion protein)
< 50% | Nc1nnc(-c2ccccc2O)cc1OCC12CC(C(=O)NCCC3CCN(c4ccc5c(c4)C(=O)N(C4CCC(=O)NC4=O)C5=O)CC3)(C1)C2 (stereo not shown) [Compound 104, 3-(((3-amino-6-(2-hydroxyphenyl)pyridazin-4-yl)oxy)methyl)-N-(2-(1-(2-(2,6-dioxopiperidin-3-yl)-1,3-dioxoisoindolin-5-yl)piperidin-4-yl)ethyl)bicyclo[1.1.1]pentane-1-carboxamide] | C (“C” indicates maximum degradation < 50%)
> 50% | Cc1ncsc1-c1ccc(CNC(=O)[C@@H]2C[C@@H](O)CN2C(=O)[C@@H](NC(=O)CCCCCCCCCC(=O)NC23CC(CCOc4cc(-c5ccccc5O)nnc4N)(C2)C3)C(C)(C)C)cc1 [Compound 48, N1-(3-(2-((3-amino-6-(2-hydroxyphenyl)pyridazin-4-yl)oxy)ethyl)bicyclo[1.1.1]pentan-1-yl)-N11-((S)-1-((2S,4R)-4-hydroxy-2-((4-(4-methylthiazol-5-yl)benzyl)carbamoyl)pyrrolidin-1-yl)-3,3-dimethyl-1-oxobutan-2-yl)undecanediamide; formic acid] | B (“B” indicates maximum degradation ≥ 50%)
< 50% | Cc1ncsc1-c1ccc(CNC(=O)[C@@H]2C[C@@H](O)CN2C(=O)[C@@H](NC(=O)CCCCCCCCCCC(=O)NC23CC(CCOc4cc(-c5ccccc5O)nnc4N)(C2)C3)C(C)(C)C)cc1 [Compound 47, N1-(3-(2-((3-amino-6-(2-hydroxyphenyl)pyridazin-4-yl)oxy)ethyl)bicyclo[1.1.1]pentan-1-yl)-N12-((S)-1-((2S,4R)-4-hydroxy-2-((4-(4-methylthiazol-5-yl)benzyl)carbamoyl)pyrrolidin-1-yl)-3,3-dimethyl-1-oxobutan-2-yl)dodecanediamide] | B (“B” indicates maximum degradation ≥ 50%)
< 50% | Nc1nnc(-c2ccccc2O)cc1OCC12CC(C(=O)NCCCCS(=O)(=O)CCCNc3cccc4c3C(=O)N(C3CCC(=O)NC3=O)C4=O)(C1)C2 (stereo not shown) [Compound 73, 3-(((3-amino-6-(2-hydroxyphenyl)pyridazin-4-yl)oxy)methyl)-N-(4-((3-((2-(2,6-dioxopiperidin-3-yl)-1,3-dioxoisoindolin-4-yl)amino)propyl)sulfonyl)butyl)bicyclo[1.1.1]pentane-1-carboxamide] | C (“C” indicates maximum degradation < 50%)
< 50% | Nc1nnc(-c2ccccc2O)cc1OCC12CC(C(=O)NCCOCCOCCNc3cccc4c3CN(C3CCC(=O)NC3=O)C4=O)(C1)C2 (stereo not shown) [Compound 60, 3-(((3-amino-6-(2-hydroxyphenyl)pyridazin-4-yl)oxy)methyl)-N-(2-(2-(2-((2-(2,6-dioxopiperidin-3-yl)-1-oxoisoindolin-4-yl)amino)ethoxy)ethoxy)ethyl)bicyclo[1.1.1]pentane-1-carboxamide] | C (“C” indicates maximum degradation < 50%)
< 50% | Nc1nnc(-c2ccccc2O)cc1OCC12CC(C(=O)N3CC(COc4cccc5c4C(=O)N(C4CCC(=O)NC4=O)C5=O)C3)(C1)C2 (stereo not shown) [Compound 87, 4-((1-(3-(((3-amino-6-(2-hydroxyphenyl)pyridazin-4-yl)oxy)methyl)bicyclo[1.1.1]pentane-1-carbonyl)azetidin-3-yl)methoxy)-2-(2,6-dioxopiperidin-3-yl)isoindoline-1,3-dione] | C (“C” indicates maximum degradation < 50%)
< 50% | Nc1nnc(-c2ccccc2O)cc1OCC12CC(C(=O)N3CC4(CCN(CCCNc5ccc6c(c5)C(=O)N(C5CCC(=O)NC5=O)C6=O)CC4)C3)(C1)C2 (stereo not shown) [Compound 98, 5-((3-(2-(3-(((3-amino-6-(2-hydroxyphenyl)pyridazin-4-yl)oxy)methyl)bicyclo[1.1.1]pentane-1-carbonyl)-2,7-diazaspiro[3.5]nonan-7-yl)propyl)amino)-2-(2,6-dioxopiperidin-3-yl)isoindoline-1,3-dione; formic acid] | B (“B” indicates maximum degradation ≥ 50%)
< 50% | Nc1nnc(-c2ccccc2O)cc1OCC12CC(C(=O)NCCOCCOCCOCCNC(=O)COc3cccc4c3C(=O)N(C3CCC(=O)NC3=O)C4=O)(C1)C2 (stereo not shown) [Compound 92, 3-(((3-amino-6-(2-hydroxyphenyl)pyridazin-4-yl)oxy)methyl)-N-(1-((2-(2,6-dioxopiperidin-3-yl)-1,3-dioxoisoindolin-4-yl)oxy)-2-oxo-6,9,12-trioxa-3-azatetradecan-14-yl)bicyclo[1.1.1]pentane-1-carboxamide] | C (“C” indicates maximum degradation < 50%)
> 50% | Nc1nnc(-c2ccccc2O)cc1OCC12CC(C(=O)N3CCC(CCCCN4CCN(c5ccc6c(c5)C(=O)N(C5CCC(=O)NC5=O)C6=O)CC4)CC3)(C1)C2 (stereo not shown) [Compound 95, 5-(4-(4-(1-(3-(((3-amino-6-(2-hydroxyphenyl)pyridazin-4-yl)oxy)methyl)bicyclo[1.1.1]pentane-1-carbonyl)piperidin-4-yl)butyl)piperazin-1-yl)-2-(2,6-dioxopiperidin-3-yl)isoindoline-1,3-dione; formic acid] | B (“B” indicates maximum degradation ≥ 50%)

Reference: US12552775B2, “Compounds and uses thereof” (Foghorn Therapeutics Inc., priority 2020, dated 2026)
